In patent US8937167B2 (Washington University, priority 2009, dated 2015):
Like-named read-outs stand apart in the source and are kept apart here.

Target: FimH (Escherichia coli, UniProt Q1R2J4)
Details: for HAI Titer EC>50: Table 21
[1] = Table 18, Examples 30-36 numbering
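Note: hemagglutination inhibition of guinea pig erythrocytes agglutinated by type 1 piliated uropathogenic E. coli via FimH mannose binding, quantified through serial dilutions of compound.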

SMILES	HAI Titer EC>50 (ZFH/JWJ codes)	other results
OC[C@@H]1OC(Oc2ccc(-c3ccc4ncncc4c3)cc2)[C@H](O)[C@@H](O)[C@@H]1O (stereo partly drawn) [Compound 4ZFH247, (2S,3S,4S,5R)-2-(hydroxymethyl)-6-(4-quinazolin-6-ylphenoxy)tetrahydropyran-3,4,5-triol]	0.375 µM	HAI Titer EC>90: 0.375 µM; HAI Titer EC>90 (Table 22, ZFH/JWJ codes): 0.375 µM
OC[C@@H]1OC(Oc2ccc(-c3ccc4ccncc4c3)cc2)[C@H](O)[C@@H](O)[C@@H]1O (stereo partly drawn) [Compound 4ZFH275, (2S,3S,4S,5R)-2-(hydroxymethyl)-6-[4-(7-isoquinolyl)phenoxy]tetrahydropyran-3,4,5-triol]	0.750 µM	HAI Titer EC>90: 0.750 µM; HAI Titer EC>90 (Table 22, ZFH/JWJ codes): 0.750 µM
CC(=O)Nc1ccc(-c2ccc(OC3OC(CO)C(O)C(O)C3O)cc2)cc1 (centres unmarked) [Compound 4ZFH277]	1.000 µM	–
CNC(=O)c1cc(C(=O)NC)cc(-c2ccc(OC3O[C@@H](CO)[C@@H](O)[C@H](O)[C@H]3O)c(C)c2)c1 (stereo partly drawn) [Compound 4ZFH284, N1,N3-dimethyl-5-[3-methyl-4-[(3R,4S,5S,6S)-3,4,5-trihydroxy-6-(hydroxymethyl)tetrahydropyran-2-yl]oxy-phenyl]benzene-1,3-dicarboxamide]	0.016 µM	HAI Titer EC>90: 0.016 µM; HAI Titer EC>90 (Table 22, ZFH/JWJ codes): 0.016 µM
NC(=O)Nc1csc(-c2ccc(OC3OC(CO)C(O)C(O)C3O)cc2)c1 (centres unmarked) [Compound 4ZFH303]	1.000 µM	–
CC(=O)Nc1ccc(-c2ccc(OC3OC(CO)C(O)C(O)C3O)cc2)cc1C(=O)O (centres unmarked) [Compound 4ZFH306]	0.750 µM	–
COC(=O)c1cc(-c2ccc(OC3OC(CO)C(O)C(O)C3O)cc2)ccc1NC(C)=O (centres unmarked) [Compound 4ZFH308]	0.250 µM	–
COC(=O)c1cccc(-c2ccc(O[C@H]3O[C@H](CO)[C@@H](O)[C@H](O)[C@@H]3O)c(F)c2)c1 [Compound 4a, Methyl 3-[3-fluoro-4-[(2R,3S,4S,5S,6R)-3,4,5-trihydroxy-6-(hydroxymethyl)tetrahydropyran-2-yl]oxy-phenyl]benzoate]	–	HAI Titer EC>90 (Table 17, Examples 30-36 numbering): 0.75 µM
CNC(=O)c1cccc(-c2ccc([C@@H](O)C3OC(CO)C(O)C(O)C3O)cc2)c1 (some centres unmarked) [Compound 5ZFH38]	0.250 µM	–
CNC(=O)c1cccc(-c2ccc([C@H](O)C3OC(CO)C(O)C(O)C3O)cc2)c1 (some centres unmarked) [Compound 5ZFH48]	24.000 µM	–
CNC(=O)c1cccc(-c2ccc(CC3OC(CO)C(O)C(O)C3O)cc2)c1 (centres unmarked) [Compound 5ZFH49]	1.000 µM	–
OCC1OC(Oc2ccc(-c3cccc4cnccc34)cc2)C(O)C(O)C1O (centres unmarked) [Compound 5ZFH61]	0.250 µM	–
O=c1[nH]ccc2ccc(-c3ccc(OC4OC(CO)C(O)C(O)C4O)cc3)cc12 (centres unmarked) [Compound 5ZFH63]	0.100 µM	–
O=C(NCCO)c1cccc(-c2ccc(O[C@H]3O[C@H](CO)[C@@H](O)[C@H](O)[C@@H]3O)cc2)c1 [Compound 10a, N-(2-Hydroxyethyl)-3-[4-[(2R,3S,4S,5S,6R)-3,4,5-trihydroxy-6-(hydroxymethyl)tetrahydropyran-2-yl]oxyphenyl]benzamide]	–	HAI Titer EC>90 [1]: 0.50 µM
NCCNC(=O)c1cccc(-c2ccc(O[C@H]3O[C@H](CO)[C@@H](O)[C@H](O)[C@@H]3O)cc2)c1 [Compound 10b, N-(2-Aminoethyl)-3-[4-[(2R,3S,4S,5S,6R)-3,4,5-trihydroxy-6-(hydroxymethyl)tetrahydropyran-2-yl]oxyphenyl]benzamide]	–	HAI Titer EC>90 [1]: 3.0 µM; fold drop in HAI activity (relative to methyl amide 2): 6 fold
O=C(Nc1ccncc1)c1cccc(-c2ccc(O[C@H]3O[C@H](CO)[C@@H](O)[C@H](O)[C@@H]3O)cc2)c1 [Compound 10e, N-(4-Pyridyl)-3-[4-[(2R,3S,4S,5S,6R)-3,4,5-trihydroxy-6-(hydroxymethyl)tetrahydropyran-2-yl]oxyphenyl]benzamide]	–	HAI Titer EC>90 [1]: 0.25 µM
